Legend:
[1] = Comparative tissue distribution of 2-PMPA prodrugs versus equimolar 2-PMPA in nude mice (kidney 2-PMPA by LC/MS-MS); assay type: in vivo; conditions: 5 mg/kg or molar equivalent, i.p., 30 minutes
Procedure: Nude mice were administered either 2-PMPA or the prodrugs LTP-144 or Tris-POC-2-PMPA (compound 10 of Table 1) (5 mg/kg or molar equivalent, i.p.) prior to brief isoflurane anesthesia, saline perfusion, and sacrificed 30 minutes later. Kidneys were removed and flash frozen in liquid nitrogen. Each tissue sample was assessed for 2-PMPA concentration using previously described LC/MS-MS based bioanalysis (Majer et al., 2016). In addition, a prodrug of the urea-based PSMA ligand ZJ-43 (with similar pro-moiety modifications to Tris-POC-2-PMPA) was tested using similar methods.

renal PSMA = target: T1, renal PSMA (Mus musculus, UniProt O35409); assay: Displacement study of 68Ga-PSMA-617 in non-tumor-bearing NMRI mice (PET); assay type: in vivo; conditions: 0.5 mg/kg i.v. 1 h after tracer, scan 2 h after tracer
T1 construct: from tissue; host or cells: kidney of living NMRI mice (PET)
Procedure: ^68Ga-PSMA-617 was synthesized as described previously (Afshar-Oromieh et al., 2015). The specific activity of the radiopharmaceutical used in the presented animal study (20 MBq of ^68Ga tagged to 0.2-0.8 μg of precursor peptide) corresponds to the one used in clinical application (Afshar-Oromieh et al., 2015). Three non-tumor-bearing NMRI mice were injected via the tail vein with 20 MBq of ^68Ga-PSMA-617. 1 h post injection, enough time for specific tracer binding to renal PSMA and clearance of unbound tracer from the kidney calices, mice were imaged in a dedicated small animal PET-scanner (Siemens, Inveon) to quantify kidney uptake (baseline-scan). Immediately after the baseline scan 16 μg Tris-POC-2-PMPA (0.5 mg/kg*32.1 g bodyweight (BW) of all mice) in 100 μL saline was injected via the tail vein. Another 1 h later, i.e., 2 h after injection of the PET-tracer, ^68Ga-PSMA-617 kidney uptake was re-evaluated per animal PET (displacement-scan).

PSMA [2] = assay: Displacement study of 68Ga-PSMA-617 in LNCaP tumor xenograft bearing nude mice (PET); assay type: in vivo; conditions: average of two animals, 0.5 or 0.05 mg/kgBW after baseline scan; baseline mSUV 1.02; saline control mSUV 0.84
Procedure: (§1) 5*10^6 LNCaP cells (BD Biosciences) were implanted behind the left shoulder of n=3 nude mice; tumors reached a diameter of approximately 1-cm diameter 8-12 weeks after inoculation. Baseline uptake of the radiopharmaceutical in kidneys and tumor was quantified per animal PET-scan (Siemens, Inveon) 1 h after injection of ^68Ga-PSMA-617 (10-40 MBq ^68Ga tagged to […] PSMA-617 precursor). Immediately after the baseline scan animals were injected with 0.5 mg/kgBW or 0.05 mg/kgBW Tris-POC-2-PMPA in […] saline or pure saline as control. Another 1 h later, i.e., 2 h after injection of the PET-tracer, ^68Ga-PSMA-617 uptake in kidneys and tumor were re-evaluated per second animal PET (displacement scan).

PSMA [3] = target: PSMA (Mus musculus, UniProt O35409); assay: as above; assay type: in vivo; design: from tissue; host or cells: kidney of nude mice bearing LNCaP xenografts (PET)
Procedure: as §1

PSMA [4] = target: T2, PSMA (Homo sapiens, UniProt Q04609); assay: Kidney and salivary gland uptake of 68Ga-PSMA-617 in healthy human subject with and without Tris-POC-2-PMPA pre-dosing (PET); assay type: in vivo; design: from tissue; host or cells: kidneys, salivary and lacrimal glands, and tumour lesions/metastases of living human subjects (PET / gamma imaging)
Procedure: From a couple of patients who had been imaged (Siemens, mCT) 0.1 h, 1 h, 2 h, 3 h and 4 h after injection of ^68Ga-PSMA-617 previously (Afshar-Oromieh et al., 2015), one subject without relevant tumor-load (<5 mL) was chosen to quantify the physiologic spontaneous tracer uptake in kidneys and salivary gland during the examination time. For the intervention experiment, one healthy volunteer was injected with […] (0.05 mg/kgBW) Tris-POC-2-PMPA solution (in 2.5 mL of 30% ethanol) 15 min before application of the PET-tracer. Again, PET-scans (Siemens, mCT) were performed 0.1 h, 1 h, 2 h, 3 h and 4 h after injection of ^68Ga-PSMA-617 and quantified per SUVmax for tracer uptake in kidneys and salivary glands over time.

PSMA [5] = target: T2, PSMA; assay: Tumor, kidney and salivary gland uptake of 68Ga-PSMA-617 in a prostate cancer patient with and without Tris-POC-2-PMPA pre-dosing (PET); assay type: in vivo; design: from tissue; host or cells: kidneys, salivary and lacrimal glands, and tumour lesions/metastases of living human subjects (PET / gamma imaging)
Procedure: One patient was PET imaged 1 h after injection of ^68Ga-PSMA-617 and quantified per SUVmax for tracer uptake in tumor, kidneys and salivary glands. On a subsequent day, the same patient was imaged using the same protocol but with pretreatment of 10 mg (0.1 mg/kgBW) Tris-POC-2-PMPA solution (in 2.5 mL of 30% ethanol) 15 min before application of the PET-tracer.

PSMA [6] = target: T2, PSMA; assay: 177Lu-PSMA-617 radiation dosimetry in mCRPC patients with Tris-POC-2-PMPA pre-treatment versus historical controls; assay type: in vivo; design: from tissue; host or cells: kidneys, salivary and lacrimal glands, and tumour lesions/metastases of living human subjects (PET / gamma imaging); conditions: for 177Lu-PSMA-617 absorbed dose, kidneys / 177Lu-PSMA-617 absorbed dose, parotid gland / 177Lu-PSMA-617 absorbed dose, submandibular gland / 177Lu-PSMA-617 mean dose to metastases: 15 minutes prior to infusion
Procedure: ^177Lu-PSMA-617 was offered as surrogate therapy in accordance with the updated Declaration of Helsinki, paragraph-37 “Unproven Interventions in Clinical Practice,” and in accordance with German regulations for “compassionate use,” which includes priority of all approved treatments (without contraindications) and confirmation of the indication by both a nuclear medicine physician and an external expert in urology or oncology. No systematic patient selection was performed, except all patients had to present with a PSMA-positive tumor phenotype based on PSMA imaging. All patients were informed about the experimental nature of this therapy and gave written informed consent. The institutional review board approved this retrospective study. Two patients were pre-treated with Tris-POC-2-PMPA prior to administration of ^177Lu-PSMA-617. […] Dosimetry data from historical controls presented herein are derived from patients treated under the same protocol at our center as previously reported (J Nucl Med. 2016 August; 57(8):1170-6.). All dosimetry methods were conducted as previously described in that report (J Nucl Med. 2016 August; 57(8):1170-6.).

[7] = cited from earlier work
PSMA [8] = target: T2, PSMA; design: from tissue; host or cells: kidneys, salivary and lacrimal glands, and tumour lesions/metastases of living human subjects (PET / gamma imaging); conditions: without Tris-POC-2-PMPA; same center (Kratochwil et al., 2016); cited from earlier work
[9] = 10 mg, i.v., 15 minutes prior to tracer, PET 1 h p.i., same patient
[10] = PET 1 hour after administration, no Tris-POC-2-PMPA
[11] = other mCRPC patients, literature

T2 sequence (Q04609 whole entry): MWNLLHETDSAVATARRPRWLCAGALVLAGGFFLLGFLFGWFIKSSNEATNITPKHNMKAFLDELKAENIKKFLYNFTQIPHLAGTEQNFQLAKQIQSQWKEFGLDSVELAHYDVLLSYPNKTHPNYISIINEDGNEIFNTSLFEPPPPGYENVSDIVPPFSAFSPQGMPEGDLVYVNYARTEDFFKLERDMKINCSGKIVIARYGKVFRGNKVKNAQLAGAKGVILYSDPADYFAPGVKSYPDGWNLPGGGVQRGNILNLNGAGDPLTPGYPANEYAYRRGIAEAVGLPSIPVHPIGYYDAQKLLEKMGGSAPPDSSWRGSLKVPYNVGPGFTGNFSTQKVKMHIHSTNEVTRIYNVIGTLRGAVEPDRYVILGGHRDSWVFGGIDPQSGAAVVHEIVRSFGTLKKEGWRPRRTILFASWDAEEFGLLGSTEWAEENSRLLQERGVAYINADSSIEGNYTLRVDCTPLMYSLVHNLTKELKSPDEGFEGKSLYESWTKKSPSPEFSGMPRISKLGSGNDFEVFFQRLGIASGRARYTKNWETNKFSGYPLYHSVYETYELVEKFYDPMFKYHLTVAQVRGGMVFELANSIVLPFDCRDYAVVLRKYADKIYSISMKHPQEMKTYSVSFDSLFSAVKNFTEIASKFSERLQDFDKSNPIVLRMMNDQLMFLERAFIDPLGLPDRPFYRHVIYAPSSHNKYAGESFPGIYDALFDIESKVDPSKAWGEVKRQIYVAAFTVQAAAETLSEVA
Sequence of PSMA (Mus musculus, UniProt O35409) (O35409 whole entry): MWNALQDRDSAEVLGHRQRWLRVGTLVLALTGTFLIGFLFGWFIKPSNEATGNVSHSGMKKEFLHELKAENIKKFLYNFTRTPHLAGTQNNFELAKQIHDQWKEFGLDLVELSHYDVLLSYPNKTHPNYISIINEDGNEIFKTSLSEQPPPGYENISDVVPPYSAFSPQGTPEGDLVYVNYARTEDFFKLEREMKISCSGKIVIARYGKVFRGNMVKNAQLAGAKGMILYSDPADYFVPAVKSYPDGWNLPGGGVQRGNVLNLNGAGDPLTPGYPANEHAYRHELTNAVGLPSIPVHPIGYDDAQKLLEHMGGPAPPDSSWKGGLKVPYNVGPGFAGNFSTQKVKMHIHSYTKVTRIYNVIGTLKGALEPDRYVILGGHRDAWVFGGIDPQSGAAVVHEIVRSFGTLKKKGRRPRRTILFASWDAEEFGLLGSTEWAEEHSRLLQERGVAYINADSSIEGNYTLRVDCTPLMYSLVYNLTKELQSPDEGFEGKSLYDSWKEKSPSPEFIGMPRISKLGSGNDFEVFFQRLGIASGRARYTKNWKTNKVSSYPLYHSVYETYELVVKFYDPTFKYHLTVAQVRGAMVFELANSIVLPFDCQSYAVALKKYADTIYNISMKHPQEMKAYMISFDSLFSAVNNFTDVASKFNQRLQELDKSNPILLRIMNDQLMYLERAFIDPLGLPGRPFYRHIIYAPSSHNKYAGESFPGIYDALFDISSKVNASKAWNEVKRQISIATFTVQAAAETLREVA
T1 sequence (O35409 whole entry): as above

CC(C)OC(=O)OCOC(=O)C(CCC(=O)O)CP(=O)(OCOC(=O)OC(C)C)OCOC(=O)OC(C)C (centres unmarked) [Tris-POC-2-PMPA]
concentrations of 2-PMPA in the kidney compared to an equimolar dose of 2-PMPA [1]: significantly increased | residual kidney uptake relative to baseline (renal PSMA): < 10 % of baseline-uptake | residual kidney uptake of 68Ga-PSMA-617 in displacement-scan (renal PSMA; baseline-scan 3.4 mSUV): 0.3 mSUV | tumor uptake of 68Ga-PSMA-617 in displacement-scan (PSMA [2]): 1.00 mSUV | kidney uptake of 68Ga-PSMA-617 in displacement-scan (PSMA [3]; 0.5 or 0.05 mg/kgBW after baseline scan, baseline mSUV 2.36, saline control mSUV 0.47): 0.24 mSUV | kidney uptake lower than achieved with forced diuresis (saline control) (PSMA [3]; displacement-scan, 2 h after tracer): 50% | decrease of maximum 68Ga-PSMA-617 uptake in kidney parenchyma versus representative control (PSMA [4]; 5 mg (0.05 mg/kgBW) 15 min before tracer, healthy volunteer): 65% | maximum 68Ga-PSMA-617 uptake in parotid glands (PSMA [4]; 5 mg (0.05 mg/kgBW) 15 min before tracer, control without pre-dosing 41.2): 13.5 SUVmax | maximum 68Ga-PSMA-617 uptake in kidney parenchyma (PSMA [4]; 5 mg (0.05 mg/kgBW) 15 min before tracer, control without pre-dosing 47.5): 16.5 SUVmax | displacement of 68Ga-PSMA-617 binding to kidney and salivary glands (PSMA [4]; pre-administration, healthy human male): approximately 65% | mean change of 68Ga-PSMA-617 uptake in metastases (PSMA [5]; 10 mg, i.v., 15 minutes prior to tracer): 3% | 68Ga-PSMA-617 uptake in kidneys after pre-treatment (PSMA [5]; [9]): 8.5 SUVmax | 68Ga-PSMA-617 uptake in metastases after pre-treatment (PSMA [5]; [9]): 3.9-8.8 SUVmax | 68Ga-PSMA-617 uptake in parotid gland after pre-treatment (PSMA [5]; [9]): 10.6 SUVmax | 68Ga-PSMA-617 uptake in submandibular gland after pre-treatment (PSMA [5]; [9]): 14.6 SUVmax | effect on tumor uptake of the tracer (PSMA [5]; intraindividual comparison, prostate cancer patient): completely spared tumor uptake | 177Lu-PSMA-617 absorbed dose, kidneys (PSMA [6]; patient 1, 10 mg, i.v.): 0.38 Gy/GBq | 177Lu-PSMA-617 absorbed dose, parotid gland (PSMA [6]; patient 1, 10 mg, i.v.): 0.24 Gy/GBq | 177Lu-PSMA-617 absorbed dose, submandibular gland (PSMA [6]; patient 1, 10 mg, i.v.): 0.5 Gy/GBq | 177Lu-PSMA-617 mean dose to metastases (PSMA [6]; patient 1, 10 mg, i.v.): 8.03 Gy/GBq | 177Lu-PSMA-617 absorbed dose, kidneys (PSMA [6]; patient 2, 10 mg, i.v.): 0.43 Gy/GBq | 177Lu-PSMA-617 absorbed dose, parotid gland (PSMA [6]; patient 2, 10 mg, i.v.): 0.46 Gy/GBq | 177Lu-PSMA-617 absorbed dose, submandibular gland (PSMA [6]; patient 2, 10 mg, i.v.): 0.44 Gy/GBq | 177Lu-PSMA-617 mean dose to metastases (PSMA [6]; patient 2, 10 mg, i.v.): 13.15 Gy/GBq | effect on liver exposure to 177Lu-PSMA-617 (PSMA [6]; pre-treatment): modestly reduce | effect on spleen dose of 177Lu-PSMA-617 (PSMA [6]; pre-treatment): no clear effect | dose reduction to the lacrimal glands relative to mean control values (PSMA [6]; pre-treatment before 177Lu-PSMA-617): about 82% | effect on the 177Lu-PSMA-617 dose to metastases (PSMA [6]; pre-treatment, versus historical controls): little or no effect | dose reduction, salivary glands, relative to historical controls (PSMA [6]; two patients, prior to infusion of 177Lu-PSMA-617): 72% | mean absorbed dose reduction, kidneys, relative to historical controls (PSMA [6]; two patients, 10 mg, i.v.): 45% | mean absorbed dose reduction, parotid gland, relative to historical controls (PSMA [6]; two patients, 10 mg, i.v.): 76% | mean absorbed dose reduction, submandibular gland, relative to historical controls (PSMA [6]; two patients, 10 mg, i.v.): 67% | mean absorbed dose reduction, kidneys, relative to historical controls (PSMA [6]; two patients, 10 mg, i.v., listed as TRIS-POC-2-PMPA): 48%

O=C([O-])CN1CCN(CC(=O)[O-])CCN(CC(=O)NC[C@H]2CC[C@H](C(=O)N[C@@H](Cc3ccc4ccccc4c3)C(=O)NCCCC[C@H](NC(=O)N[C@@H](CCC(=O)O)C(=O)O)C(=O)O)CC2)CCN(CC(=O)[O-])CC1.[68Ga+3] [^68Ga-PSMA-617, reference compound]
uptake in kidneys without pre-treatment (PSMA [5]; [10]): 35.4 SUVmax | uptake in metastases without pre-treatment (PSMA [5]; [10]): 3.6-12.5 SUVmax | uptake in parotid gland without pre-treatment (PSMA [5]; [10]): 18.2 SUVmax | uptake in submandibular gland without pre-treatment (PSMA [5]; [10]): 23.1 SUVmax

O=C([O-])CN1CCN(CC(=O)[O-])CCN(CC(=O)NCC2CCC(C(=O)N[C@@H](Cc3ccc4ccccc4c3)C(=O)NCCCC[C@H](NC(=O)N[C@@H](CCC(=O)O)C(=O)O)C(=O)O)CC2)CCN(CC(=O)[O-])CC1.[177Lu+3] (some centres unmarked) [^177Lu-PSMA-617]
mean effective dose to the lacrimal glands ([7]; Hohberg et al., 2016): 2.82 Gy/GBq | absorbed dose to the kidneys, reported range [7, 11]: 0.53-0.99 Gy/GBq | absorbed dose to the red marrow, reported range [7, 11]: 0.01-0.05 Gy/GBq | absorbed dose to the salivary glands, reported range [7, 11]: 0.72-1.90 Gy/GBq | mean absorbed dose to the kidneys, historical controls (PSMA [8]): 0.78 Gy/GBq | mean absorbed dose to the red marrow, historical controls (PSMA [8]): 0.03 Gy/GBq | mean absorbed dose to the salivary glands, historical controls (PSMA [8]): 1.44 Gy/GBq

— US12508271B2, “Prodrugs of 2-PMPA for healthy tissue protection during PSMA-targeted cancer imaging or radiotherapy” (The Johns Hopkins University, priority 2017, dated 2025)
